Results taken from PubChem BioAssay (NCI).
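96-well plates; 48 h exposure; 5 concentrations. Endpoints by linear interpolation between flanking doses. Not reached: highest tested concentration assigned. TGI: concentration producing complete growth inhibition.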

Experiments:
Assay in all cases: DTP human tumour cell line panel, 48 h
UO-31 renal = system: UO-31 renal
OVCAR-8 ovarian = system: OVCAR-8 ovarian
SW-620 colon = system: SW-620 colon
SF-268 CNS = system: SF-268 CNS
SNB-19 CNS = system: SNB-19 CNS
OVCAR-4 ovarian = system: OVCAR-4 ovarian
CAKI-1 renal = system: CAKI-1 renal
IGROV1 ovarian = system: IGROV1 ovarian
NCI-H522 lung = system: NCI-H522 lung
HT29 colon = system: HT29 colon
UACC-62 melanoma = system: UACC-62 melanoma
SK-MEL-2 melanoma = system: SK-MEL-2 melanoma
A549 NSCLC = system: A549 NSCLC
EKVX NSCLC = system: EKVX NSCLC
SNB-75 CNS = system: SNB-75 CNS
UACC-257 melanoma = system: UACC-257 melanoma
LOX IMVI melanoma = system: LOX IMVI melanoma
CCRF-CEM leukemia = system: CCRF-CEM leukemia
HCT-116 colon = system: HCT-116 colon
HL-60(TB) leukemia = system: HL-60(TB) leukemia

| Structure (SMILES) | TGI (UO-31 renal) [µM] | TGI (OVCAR-8 ovarian) [µM] | TGI (SW-620 colon) [µM] | TGI (SF-268 CNS) [µM] | TGI (SNB-19 CNS) [µM] | TGI (OVCAR-4 ovarian) [µM] | TGI (CAKI-1 renal) [µM] | TGI (IGROV1 ovarian) [µM] | TGI (NCI-H522 lung) [µM] | TGI (HT29 colon) [µM] | TGI (UACC-62 melanoma) [µM] | TGI (SK-MEL-2 melanoma) [µM] | TGI (A549 NSCLC) [µM] | TGI (EKVX NSCLC) [µM] | TGI (SNB-75 CNS) [µM] | TGI (UACC-257 melanoma) [µM] | TGI (LOX IMVI melanoma) [µM] | TGI (CCRF-CEM leukemia) [µM] | TGI (HCT-116 colon) [µM] | TGI (HL-60(TB) leukemia) [µM] |
| --- | --- | --- | --- | --- | --- | --- | --- | --- | --- | --- | --- | --- | --- | --- | --- | --- | --- | --- | --- | --- |
| O=C(Nc1ccc(C2=NCCN2)cc1)c1cncc(C(=O)Nc2ccc(C3=NCCN3)cc2)c1 | > 100 | > 100 | > 100 | > 31.6 | > 100 | > 100 | > 100 | > 100 | > 100 | > 100 | > 100 | > 100 | > 100 | > 100 | > 31.6 | > 100 | > 100 | > 100 | > 100 | > 100 |
| CCOC(=O)C(NC(C)=O)(Nc1ccc(F)cc1)C(F)(F)F (stereo not given) | > 100 | > 100 | > 100 | > 100 | > 100 | > 100 | > 100 | > 100 | > 100 | > 100 | > 100 | > 100 | > 100 | > 100 | > 100 | > 100 | > 100 | > 100 | > 100 | > 100 |
